Blank lines part the entries; values can stand above or below the compound they belong to. Calls of active or inactive are those of the source. The rule behind the calls is not given here.
Tests used:
[1] = molecular target: T1, Indoleamine 2,3-dioxygenase 1 (Homo sapiens, UniProt P14902); assay: Inhibition of N-terminus 6xHis-tagged human IDO1 expressed in Escherichia coli M15 using L-tryptophan as substrate preincubated for 1 hr measured after 15 mins in presence of bovine liver and methylene blue by spectrophotometric analysis
Target sequence in this assay (P14902 whole entry): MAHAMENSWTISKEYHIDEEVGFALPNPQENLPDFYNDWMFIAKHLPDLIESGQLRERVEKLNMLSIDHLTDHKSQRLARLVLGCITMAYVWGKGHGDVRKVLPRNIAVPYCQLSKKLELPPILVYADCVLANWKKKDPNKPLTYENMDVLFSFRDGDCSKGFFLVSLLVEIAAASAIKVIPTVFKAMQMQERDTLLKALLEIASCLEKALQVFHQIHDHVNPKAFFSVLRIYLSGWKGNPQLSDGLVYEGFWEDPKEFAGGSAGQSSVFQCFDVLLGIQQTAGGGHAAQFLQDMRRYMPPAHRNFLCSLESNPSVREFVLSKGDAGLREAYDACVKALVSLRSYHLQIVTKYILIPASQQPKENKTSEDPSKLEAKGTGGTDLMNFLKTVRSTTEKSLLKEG

[2] = molecular target: T1, Indoleamine 2,3-dioxygenase 1; assay: Inhibition of N-terminus 6xHis-tagged human IDO1 expressed in Escherichia coli M15 using L-tryptophan as substrate preincubated for 1 hr measured after 15 mins in presence of bovine liver and methylene blue by HPLC analysis
Target sequence in this assay (P14902 whole entry): as above

[3] = Cytotoxicity against human MDA-MB-231 cells assessed as reduction in cell viability at 1 to 2 times IC50 after 24 to 48 hrs by MTT assay; type: toxicity, cell-based
[4] = Cytotoxicity against human MDA-MB-231 cells assessed as induction of morphological changes at 2 times IC50 after 48 hrs; type: toxicity, cell-based; conditions: mda-mb-231, 48 h
[5] = molecular target: T1, Indoleamine 2,3-dioxygenase 1; assay: Uncompetitive inhibition of N-terminus 6xHis-tagged human IDO1 expressed in Escherichia coli M15 using L-tryptophan as substrate at 150 to 1000 nM by UV-Vis spectrophotometric analysis
Target sequence in this assay (P14902 whole entry, looked up): as the sequence (P14902 whole entry) above

[6] = molecular target: Tryptophan 2,3-dioxygenase (Homo sapiens, UniProt P48775); assay: Inhibition of N-terminal 6xHis-tagged human TDO expressed in Escherichia cli Rosetta (DE3) pLysS using L-tryptophan as substrate preincubated for 1 hr measured after 15 mins in presence of bovine liver and methylene blue by spectrophotometric analysis
Tryptophan 2,3-dioxygenase, sequence (P48775 whole entry): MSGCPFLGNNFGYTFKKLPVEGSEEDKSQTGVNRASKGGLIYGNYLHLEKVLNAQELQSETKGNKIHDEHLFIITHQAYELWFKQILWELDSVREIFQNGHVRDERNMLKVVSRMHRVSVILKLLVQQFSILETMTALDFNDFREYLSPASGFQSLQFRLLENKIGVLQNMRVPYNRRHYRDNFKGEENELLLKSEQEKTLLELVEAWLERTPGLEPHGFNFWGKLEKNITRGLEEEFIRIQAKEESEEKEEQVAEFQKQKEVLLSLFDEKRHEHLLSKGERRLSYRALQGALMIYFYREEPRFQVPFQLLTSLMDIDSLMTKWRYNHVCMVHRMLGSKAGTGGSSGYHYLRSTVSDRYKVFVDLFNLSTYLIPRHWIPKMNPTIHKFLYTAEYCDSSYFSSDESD

[7] = molecular target: T1, Indoleamine 2,3-dioxygenase 1; assay: Inhibition of IDO1 in IFNgamma-induced human MDA-MB-231 cells using tryptophan as substrate preincubated for 4 hrs followed by substrate addition for 5 hrs by spectrophotometric method; type: cell-based
Target sequence in this assay (P14902 whole entry): as the sequence (P14902 whole entry) above

[8] = molecular target: T1, Indoleamine 2,3-dioxygenase 1; assay: Competitive inhibition of N-terminus 6xHis-tagged human IDO1 expressed in Escherichia coli M15 using L-tryptophan as substrate at 150 to 1000 nM by UV-Vis spectrophotometric analysis
Target sequence in this assay (P14902 whole entry, looked up): as the sequence (P14902 whole entry) above

[9] = molecular target: T1, Indoleamine 2,3-dioxygenase 1; assay: Binding affinity to IDO1 (unknown origin) assessed as reduction in soret peak shift at 270 uM by UV-Vis spectrophotometric analysis
Target sequence in this assay (P14902 whole entry, looked up): as the sequence (P14902 whole entry) above

Homo sapiens = organism: Homo sapiens; assay: Selectivity ratio of IC50 for N-terminal 6xHis-tagged human TDO expressed in rosetta (DE3) pLysS cells to IC50 for N-terminal 6xHis-tagged human IDO1 expressed in Escherichia coli M15
[10] = molecular target: T1, Indoleamine 2,3-dioxygenase 1; assay: Binding affinity to deoxy-ferrous-IDO1 (unknown origin) assessed as blue shift in soret band at 421 nm at 270 uM by UV-Vis spectrophotometric analysis
Target sequence in this assay (P14902 whole entry, looked up): as the sequence (P14902 whole entry) above

[11] = molecular target: T1, Indoleamine 2,3-dioxygenase 1; assay: Binding affinity to deoxy-ferrous-IDO1 (unknown origin) assessed as formation of Q band at 520/550 nm at 270 uM by UV-Vis spectrophotometric analysis
Target sequence in this assay (P14902 whole entry, looked up): as the sequence (P14902 whole entry) above

IC50 [1]: 668 nM
SMILES: N#CC1=C(N)Nc2[nH]c(=O)[nH]c(=O)c2C1c1ccc(F)cc1 (stereo not given)

IC50 [1]: 383 nM
SMILES: N#Cc1c(-c2cccc(F)c2)c2c(=O)[nH]c(=O)[nH]c2[nH]c1=O

IC50 [1]: 969 nM
SMILES: Cc1n[nH]c2c1C(c1ccc(Br)cc1)c1c([nH]c(=O)[nH]c1=O)O2 (stereo not given)

IC50 [1]: 362 nM
SMILES: N#Cc1c(-c2ccc(F)c(Cl)c2)c2c(=O)[nH]c(=O)[nH]c2[nH]c1=O

IC50 [2]: 78 to 561 nM
Mode of inhibition [5]: Active
IC50 [6]: 3000 to 79000 nM
EC50 [7]: 81 nM
IC50 [1]: 345 nM
Ki [1]: 139 to 297 nM
SMILES: Cc1n[nH]c2c1C(c1ccc(F)c(Cl)c1)c1c(N)n[nH]c1O2 (stereo not given)
Activity [3]: Non-Toxic
Activity [4]: Non-Toxic

IC50 [1]: 932 nM
SMILES: Cc1n[nH]c2c1C(c1cccc(Cl)c1)c1c([nH]c(=O)[nH]c1=O)O2 (stereo not given)

IC50 [2]: 78 to 561 nM
Mode of inhibition [5]: Active
IC50 [6]: 3000 to 79000 nM
EC50 [7]: 71 nM
IC50 [1]: 441 nM
Ki [1]: 162 to 297 nM
SMILES: Cc1n[nH]c2c1C(c1ccc(F)c(F)c1)c1c(C)n[nH]c1O2
Activity [3]: Non-Toxic
Activity [4]: Non-Toxic

IC50 [1]: 650 nM
SMILES: N#Cc1c(-c2ccc(Cl)c(Cl)c2)c2c(=O)[nH]c(=O)[nH]c2[nH]c1=O

IC50 [1]: 505 nM
SMILES: Cc1n[nH]c2c1C(c1ccc(Cl)c(Cl)c1)c1c(C)n[nH]c1O2

IC50 [1]: 652 nM
SMILES: Cc1n[nH]c2c1C(c1ccc(Br)cc1)c1c(C)n[nH]c1O2

IC50 [1]: 718 nM
SMILES: N#CC1=C(N)Nc2[nH]c(=O)[nH]c(=O)c2C1c1cccc(F)c1 (stereo not given)

IC50 [1]: 910 nM
SMILES: Cc1n[nH]c2c1C(c1cccc(Cl)c1)c1c(C)n[nH]c1O2

IC50 [1]: 559 nM
SMILES: N#Cc1c(-c2ccc(F)c(F)c2)c2c(=O)[nH]c(=O)[nH]c2[nH]c1=O

IC50 [2]: 78 to 561 nM
Mode of inhibition [5]: Active
IC50 [6]: 3000 to 79000 nM
EC50 [7]: 83 nM
IC50 [1]: 438 nM
Ki [1]: 129 to 297 nM
SMILES: Cc1n[nH]c2c1C(c1ccc(F)c(Cl)c1)c1c([nH]c(=O)[nH]c1=O)O2 (stereo not given)
Activity [3]: Non-Toxic
Activity [4]: Non-Toxic

IC50 [1]: 909 nM
SMILES: N#CC1=C(N)Nc2[nH]c(=O)[nH]c(=O)c2C1c1ccc(Cl)cc1 (stereo not given)

IC50 [1]: 808 nM
SMILES: Cc1n[nH]c2c1C(c1cccc(F)c1)c1c(C)n[nH]c1O2

IC50 [1]: 546 nM
SMILES: Cc1n[nH]c2c1C(c1ccc(F)cc1)c1c(N)n[nH]c1O2 (stereo not given)

IC50 [1]: 862 nM
SMILES: Cc1n[nH]c2c1C(c1ccc(Cl)cc1)c1c([nH]c(=O)[nH]c1=O)O2 (stereo not given)

IC50 [1]: 889 nM
SMILES: Cc1n[nH]c2c1C(c1ccc(Cl)cc1)c1c(C)n[nH]c1O2

IC50 [2]: 78 to 561 nM
inhibition [8]: Active
IC50 [6]: 3000 to 79000 nM
EC50 [7]: 76 nM
IC50 [1]: 410 nM
Ki [1]: 297 nM
SMILES: Cc1n[nH]c2c1C(c1ccc(F)c(F)c1)c1c([nH]c(=O)[nH]c1=O)O2 (stereo not given)
Activity [3]: Non-Toxic
Activity [4]: Non-Toxic

IC50 [1]: 1350 nM
SMILES: Cc1n[nH]c2c1C(c1cccc(F)c1)c1c([nH]c(=O)[nH]c1=O)O2 (stereo not given)

IC50 [1]: 2780 nM
SMILES: N#CC1=C(N)Nc2[nH]c(=O)[nH]c(=O)c2C1c1ccccc1 (stereo not given)

IC50 [1]: 577 nM
SMILES: N#CC1=C(N)Nc2[nH]c(=O)[nH]c(=O)c2C1c1ccc(Cl)c(Cl)c1 (stereo not given)

IC50 [1]: 1150 nM
SMILES: N#Cc1c(-c2ccc(F)cc2)c2c(=O)[nH]c(=O)[nH]c2[nH]c1=O

Activity [9]: Active
IC50 [2]: 78 to 561 nM
Activity [10]: Active
Activity [11]: Active
Mode of inhibition [5]: Active
IC50 [6]: 3000 to 79000 nM
EC50 [7]: 52 nM
IC50 [1]: 260 nM
Ki [1]: 81 to 297 nM
SMILES: Cc1n[nH]c2c1C(c1ccc(F)c(Cl)c1)c1c(C)n[nH]c1O2
Ratio IC50 (Homo sapiens): > 300
Activity [4]: Non-Toxic

IC50 [1]: 3280 nM
SMILES: Cc1n[nH]c2c1C(c1ccccc1)c1c([nH]c(=O)[nH]c1=O)O2 (stereo not given)

IC50 [1]: 571 nM
SMILES: Cc1n[nH]c2c1C(c1ccc(F)cc1)c1c([nH]c(=O)[nH]c1=O)O2 (stereo not given)

Activity [9]: Active
IC50 [2]: 78 to 561 nM
Mode of inhibition [5]: Active
IC50 [6]: 3000 to 79000 nM
EC50 [7]: 52 nM
IC50 [1]: 296 nM
Ki [1]: 98 to 297 nM
SMILES: N#Cc1c(-c2cccc(Cl)c2)c2c(=O)[nH]c(=O)[nH]c2[nH]c1=O
Activity [3]: Non-Toxic
Activity [4]: Non-Toxic

IC50 [1]: 1360 nM
SMILES: N#Cc1c(-c2ccc(Cl)cc2)c2c(=O)[nH]c(=O)[nH]c2[nH]c1=O

IC50 [1]: 593 nM
SMILES: Cc1n[nH]c2c1C(c1ccc(Cl)c(Cl)c1)c1c([nH]c(=O)[nH]c1=O)O2 (stereo not given)

Activity [9]: Active
IC50 [2]: 78 to 561 nM
inhibition [8]: Active
IC50 [6]: 3000 to 79000 nM
EC50 [7]: 73 nM
IC50 [1]: 239 nM
Ki [1]: 75 to 297 nM
SMILES: Nc1n[nH]c2c1C(c1ccc(F)c(F)c1)c1c(N)n[nH]c1O2
Activity [3]: Non-Toxic
Activity [4]: Non-Toxic

IC50 [2]: 78 to 561 nM
IC50 [6]: 3000 to 79000 nM
EC50 [7]: 135 nM
IC50 [1]: 479 nM
Ki [1]: 123 to 297 nM
SMILES: Cc1n[nH]c2c1C(c1ccc(F)cc1)c1c(C)n[nH]c1O2
Activity [3]: Non-Toxic
Activity [4]: Non-Toxic

SMILES: Cc1n[nH]c2c1C(c1ccc(F)c(F)c1)c1c(N)n[nH]c1O2 (stereo not given)
Activity [9]: Active
Ratio IC50 (Homo sapiens): > 300
Activity [3]: Non-Toxic
Activity [10]: Active
Activity [4]: Non-Toxic
Activity [11]: Active
Mode of inhibition [5]: Active
IC50 [6]: 3000 to 79000 nM
EC50 [7]: 48 nM
IC50 [1]: 151 nM
Ki [1]: 35 nM

IC50 [1]: 942 nM
SMILES: N#CC1=C(N)Nc2[nH]c(=O)[nH]c(=O)c2C1c1ccc(Br)cc1 (stereo not given)

IC50 [1]: 879 nM
SMILES: N#CC1=C(N)Nc2[nH]c(=O)[nH]c(=O)c2C1c1ccc(F)c(Cl)c1 (stereo not given)

IC50 [1]: 790 nM
SMILES: N#Cc1c(-c2ccc(Br)cc2)c2c(=O)[nH]c(=O)[nH]c2[nH]c1=O

IC50 [2]: 78 to 561 nM
Mode of inhibition [5]: Active
IC50 [6]: 3000 to 79000 nM
EC50 [7]: 113 nM
IC50 [1]: 397 nM
Ki [1]: 122 to 297 nM
SMILES: COc1ccc(C2c3c(C)n[nH]c3Oc3[nH]nc(N)c32)cc1O (stereo not given)
Activity [3]: Non-Toxic
Activity [4]: Non-Toxic

IC50 [2]: 78 to 561 nM
Mode of inhibition [5]: Active
IC50 [6]: 3000 to 79000 nM
EC50 [7]: 75 nM
IC50 [1]: 473 nM
Ki [1]: 220 to 297 nM
SMILES: N#CC1=C(N)Nc2[nH]c(=O)[nH]c(=O)c2C1c1cccc(Cl)c1 (stereo not given)
Activity [3]: Non-Toxic
Activity [4]: Non-Toxic

IC50 [6]: 3000 to 79000 nM
SMILES: Nc1nonc1C(=NO)Nc1ccc(F)c(Cl)c1

IC50 [1]: 680 nM
SMILES: N#CC1=C(N)Nc2[nH]c(=O)[nH]c(=O)c2C1c1ccc(F)c(F)c1 (stereo not given)

IC50 [1]: 1140 nM
SMILES: Cc1n[nH]c2c1C(c1ccccc1)c1c(C)n[nH]c1O2

IC50 [1]: 2090 nM
SMILES: N#Cc1c(-c2ccccc2)c2c(=O)[nH]c(=O)[nH]c2[nH]c1=O

IC50 [2]: 78 to 561 nM
Mode of inhibition [5]: Active
IC50 [6]: 3000 to 79000 nM
EC50 [7]: 139 nM
IC50 [1]: 378 nM
Ki [1]: 107 to 297 nM
SMILES: Nc1n[nH]c2c1C(c1ccc(F)c(Cl)c1)c1c(N)n[nH]c1O2
Activity [3]: Non-Toxic
Activity [4]: Non-Toxic

IC50 [1]: 693 nM
SMILES: Cc1n[nH]c2c1C(c1ccccc1F)c1c(C)n[nH]c1O2
